TGI data for twelve compounds are collected here from PubChem BioAssay (NCI).

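These data come from cells grown in 96-well plates and exposed to compound for 48 hours at five concentrations. TGI is the concentration that stops growth completely.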 Where only a bound is given, the exact number is not on record here.

Test systems include UACC-257 melanoma; A498 renal; HCT-15 colon; SF-268 CNS; M14 melanoma; MDA-N; BT-549 breast; COLO 205 colon; OVCAR-5 ovarian; A549 NSCLC; SR leukemia; K-562 leukemia; SK-MEL-28 melanoma; NCI-H522 lung; MDA-MB-231 breast; HOP-92 NSCLC; RPMI-8226 leukemia.
Common to all, as to assay: inhibition of tumour cell growth, NCI panel, 48 h

As for `Cc1ccc(-n2cc(-c3ccc(Cl)cc3)c3c(N/N=C4\SCC(=O)N4C)ncnc32)cc1`, the TGI in the assay on UACC-257 melanoma is 27.1 µM; with A498 renal it was 31.3 µM; with HCT-15 colon, more than 100 µM; with SF-268 CNS, more than 100 µM; in the assay on M14 melanoma, 19.5 µM; in the assay on MDA-N it was 63.4 µM. The TGI was 82 µM in the assay on BT-549 breast; 37.5 µM in the assay on COLO 205 colon; more than 100 µM with OVCAR-5 ovarian; 26.6 µM in the assay on A549 NSCLC; more than 100 µM in the assay with SR leukemia; more than 100 µM with K-562 leukemia. The TGI is 6.23 µM with SK-MEL-28 melanoma; 26.7 µM in the assay on NCI-H522 lung; 23.8 µM in the assay on MDA-MB-231 breast; 8.24 µM in the assay with HOP-92 NSCLC; more than 100 µM with RPMI-8226 leukemia.

For the compound `CC12CC3OC(=O)C1COC14OC5(C2C1=O)C(O)(CCC1C4CC2OC24CC=CC(=O)C14C)C(=O)OC35C` (centres undefined), the TGI is 39.4 µM with UACC-257 melanoma; 43.3 µM in the assay on A498 renal; 37.7 µM with HCT-15 colon; more than 100 µM with SF-268 CNS; 44 µM in the assay with M14 melanoma; 29.4 µM in the assay with MDA-N. Besides, the TGI was 9.66 µM with BT-549 breast; 22.1 µM in the assay with COLO 205 colon; 34.9 µM with OVCAR-5 ovarian; more than 100 µM in the assay on A549 NSCLC; 48.3 µM in the assay with SR leukemia; more than 100 µM in the assay on K-562 leukemia. Further, the TGI turned out to be 24.7 µM in the assay with SK-MEL-28 melanoma; 19.8 µM with NCI-H522 lung; 37 µM in the assay with MDA-MB-231 breast; 68.1 µM with HOP-92 NSCLC; 71.4 µM in the assay with RPMI-8226 leukemia.

Turning to `CCCCCc1nnc(NS(=O)(=O)c2ccc(NC(=O)OCC(C)C)cc2)s1`, the TGI in the assay with UACC-257 melanoma is more than 100 µM; in the assay with A498 renal, 24.6 µM; in the assay on HCT-15 colon, more than 100 µM; in the assay with SF-268 CNS, more than 100 µM; with M14 melanoma, more than 100 µM; in the assay with MDA-N, more than 100 µM. Also, the TGI with BT-549 breast was more than 100 µM; with COLO 205 colon, 41.6 µM; with OVCAR-5 ovarian it was more than 100 µM; in the assay with A549 NSCLC it was more than 100 µM; with SR leukemia it was 36.9 µM; in the assay on K-562 leukemia, 60.9 µM. The TGI was 95.5 µM in the assay with SK-MEL-28 melanoma; 79 µM in the assay with NCI-H522 lung; more than 100 µM in the assay on MDA-MB-231 breast; 77.3 µM with HOP-92 NSCLC; 41.4 µM in the assay with RPMI-8226 leukemia.

On to `Cc1c(-c2ccccc2)nn2cc(-c3ccccc3)nnc12`, for which the TGI in the assay with UACC-257 melanoma is more than 100 µM; with A498 renal it was more than 100 µM; in the assay on HCT-15 colon, 44.5 µM; in the assay with SF-268 CNS, more than 100 µM; with M14 melanoma, more than 100 µM; in the assay with MDA-N, more than 100 µM. The TGI was 87.3 µM with BT-549 breast; 62 µM in the assay with COLO 205 colon; more than 100 µM in the assay on OVCAR-5 ovarian; 52.5 µM with A549 NSCLC; more than 100 µM with SR leukemia; more than 100 µM in the assay with K-562 leukemia. The TGI was more than 100 µM in the assay with SK-MEL-28 melanoma; 55 µM in the assay on NCI-H522 lung; 62.9 µM in the assay on MDA-MB-231 breast; 88.3 µM with HOP-92 NSCLC; more than 100 µM in the assay with RPMI-8226 leukemia.

Turning to `COc1ccc(/C=C/C(=O)c2cc(C(C)(C)C)c(O)c(C(C)(C)C)c2)cc1OC`, the TGI in the assay on UACC-257 melanoma was 23.3 µM; in the assay with A498 renal, more than 79.7 µM; in the assay on HCT-15 colon, more than 100 µM; with SF-268 CNS, more than 67.7 µM; in the assay with M14 melanoma, more than 100 µM; with MDA-N it was more than 33.3 µM. Further, the TGI with BT-549 breast was more than 77.6 µM; in the assay with COLO 205 colon, 31.9 µM; in the assay on OVCAR-5 ovarian, more than 85.8 µM; in the assay on A549 NSCLC it was more than 100 µM; with SR leukemia, 5.83 µM; in the assay on K-562 leukemia, more than 89.6 µM. Besides, the TGI in the assay on SK-MEL-28 melanoma is more than 100 µM; in the assay on NCI-H522 lung it was 72.1 µM; in the assay with MDA-MB-231 breast, 51.6 µM; in the assay with HOP-92 NSCLC, more than 100 µM; in the assay on RPMI-8226 leukemia, 12.8 µM.

Regarding `CCOC(=O)c1sc2nc(SC)nc3c2c1NCN3c1ccc(F)c(F)c1`, the TGI is more than 100 µM with UACC-257 melanoma; 35.6 µM in the assay on A498 renal; more than 100 µM in the assay on HCT-15 colon; more than 100 µM in the assay on SF-268 CNS; more than 100 µM in the assay with M14 melanoma; more than 45.8 µM in the assay with MDA-N. Besides, the TGI in the assay on BT-549 breast was more than 66.5 µM; in the assay with COLO 205 colon, more than 100 µM; in the assay on OVCAR-5 ovarian, more than 100 µM; with A549 NSCLC it was 25.3 µM; in the assay on SR leukemia, more than 100 µM; in the assay on K-562 leukemia, more than 100 µM. Besides, the TGI in the assay on SK-MEL-28 melanoma was more than 100 µM; with NCI-H522 lung, more than 100 µM; in the assay on MDA-MB-231 breast it was 46.2 µM; with HOP-92 NSCLC, 83 µM; with RPMI-8226 leukemia, more than 100 µM.

As for `COC(=O)C1=C(OC(=O)/C=C/c2ccccc2)C(C(=O)OC)[C@@]2(O)[C@@H](C(=O)OC)[C@H](C)C[C@@H]1[C@@H]2C(=O)OC` (some centres undefined), the TGI was 90.9 µM in the assay on UACC-257 melanoma; 36.7 µM in the assay with A498 renal; 37.6 µM in the assay on HCT-15 colon; 92 µM with SF-268 CNS; more than 100 µM in the assay with M14 melanoma; more than 100 µM in the assay with MDA-N. In addition, the TGI in the assay on BT-549 breast is 56.1 µM; in the assay on COLO 205 colon, 74.8 µM; in the assay with OVCAR-5 ovarian it was 46.1 µM; in the assay on A549 NSCLC, 58.4 µM; in the assay with SR leukemia, more than 100 µM; with K-562 leukemia, more than 100 µM. Moreover, the TGI in the assay with SK-MEL-28 melanoma is more than 100 µM; with NCI-H522 lung, 21 µM; in the assay with MDA-MB-231 breast, 43.9 µM; with HOP-92 NSCLC, 48 µM; with RPMI-8226 leukemia, more than 100 µM.

In the case of `CCCCCCNC(=O)CCC(NC(=O)c1ccc(N(C)Cc2cnc3nc(N)nc(N)c3n2)cc1)C(=O)NCCCCCC` (centres undefined), the TGI in the assay with UACC-257 melanoma, in the assay with A498 renal, in the assay on HCT-15 colon, in the assay on SF-268 CNS, with M14 melanoma and in the assay with MDA-N was more than 100 µM in each case. The TGI in the assay with BT-549 breast, in the assay on COLO 205 colon, in the assay with OVCAR-5 ovarian, in the assay with A549 NSCLC, with SR leukemia and in the assay with K-562 leukemia was more than 100 µM throughout. Also, the TGI in the assay with SK-MEL-28 melanoma, in the assay with NCI-H522 lung, in the assay with MDA-MB-231 breast, in the assay with HOP-92 NSCLC and in the assay on RPMI-8226 leukemia was more than 100 µM in each case.

For the compound `C(=N\Nc1ccc(-c2nc3ccccc3[nH]2)cc1)/c1c(-c2ccc(Cc3ccccc3)cc2)[nH]c2ccccc12`, the TGI in the assay on UACC-257 melanoma is more than 89.1 µM; in the assay with A498 renal, 33.3 µM; with HCT-15 colon, more than 100 µM; with SF-268 CNS it was 10 µM; in the assay with M14 melanoma, more than 54.4 µM; with MDA-N it was more than 24.5 µM. The TGI in the assay with BT-549 breast was 38 µM; with COLO 205 colon, 19.8 µM; in the assay with OVCAR-5 ovarian, more than 100 µM; in the assay on A549 NSCLC it was more than 100 µM; with SR leukemia, more than 100 µM; with K-562 leukemia, more than 100 µM. Moreover, the TGI with SK-MEL-28 melanoma is more than 100 µM; in the assay with NCI-H522 lung, 31.9 µM; in the assay with MDA-MB-231 breast it was 60.6 µM; in the assay on HOP-92 NSCLC it was 25.7 µM; in the assay on RPMI-8226 leukemia it was more than 32.5 µM.

`COC(OC)C1OCC(n2cc(F)c(=O)[nH]c2=O)C1O` (centres undefined): the TGI with UACC-257 melanoma, in the assay on A498 renal, in the assay with HCT-15 colon, in the assay with SF-268 CNS, in the assay on M14 melanoma and in the assay on MDA-N was more than 100 µM each time. For the same compound, the TGI in the assay with BT-549 breast, with COLO 205 colon, with OVCAR-5 ovarian, in the assay with A549 NSCLC, with SR leukemia and in the assay with K-562 leukemia was more than 100 µM in each case. Also, the TGI in the assay on SK-MEL-28 melanoma, in the assay with NCI-H522 lung, in the assay with MDA-MB-231 breast, with HOP-92 NSCLC and in the assay with RPMI-8226 leukemia was more than 100 µM in each case.

Turning to `CSc1cc(-c2ccccn2)nc(-c2ccccn2)c1`, the TGI is 15.3 µM with UACC-257 melanoma; 2.76 µM in the assay on A498 renal; 4.11 µM in the assay on HCT-15 colon; more than 35.2 µM in the assay with SF-268 CNS; 0.335 µM in the assay on M14 melanoma; 16 µM with MDA-N. Further, the TGI is 6.07 µM in the assay with BT-549 breast; 7.29 µM with COLO 205 colon; 9.46 µM in the assay on OVCAR-5 ovarian; 3.58 µM with A549 NSCLC; more than 100 µM in the assay on SR leukemia; more than 100 µM with K-562 leukemia. Besides, the TGI in the assay with SK-MEL-28 melanoma was 14.8 µM; with NCI-H522 lung, 9.74 µM; in the assay with MDA-MB-231 breast, 18.1 µM; in the assay with HOP-92 NSCLC, 2.91 µM; in the assay with RPMI-8226 leukemia it was more than 100 µM.

`CCCCCc1cc2cc3c(c(O)c2c(=O)[nH]1)C1(CCC3)C(O)=c2c(=O)c3c(=O)cc(OC)c(=O)c=3c(=O)c2=C1O` (centres undefined): the TGI amounted to 4.64 µM in the assay on UACC-257 melanoma; 4.58 µM in the assay on A498 renal; 2.33 µM in the assay on HCT-15 colon; 3.63 µM with SF-268 CNS; 3.33 µM with M14 melanoma; 3.84 µM in the assay on MDA-N. Also, the TGI in the assay with BT-549 breast was 3.33 µM; in the assay on COLO 205 colon it was 0.564 µM; with OVCAR-5 ovarian, 4.47 µM; in the assay with A549 NSCLC, 3.53 µM; in the assay on SR leukemia it was 4.27 µM; with K-562 leukemia, more than 18.7 µM. The TGI is 3.68 µM in the assay with SK-MEL-28 melanoma; 1.87 µM in the assay with NCI-H522 lung; 4.28 µM in the assay on MDA-MB-231 breast; 1.3 µM with HOP-92 NSCLC; more than 18.7 µM in the assay on RPMI-8226 leukemia.
